Source: patent publication US20150141460A1, “Anti-inflammatory Compositions” (Cambridge Enterprise Limited, priority 2007, published 2015)
Where two headings read alike, the source gives them in different places.

Tests used:
[1] = Identification of the primary metabolites in pooled rat urine by LC-MS-MS; type: in vivo; conditions: single oral dose 3 mg/kg in 1% CMC, pooled urine over 24 hrs, qualitative
Method: (§1) Urine was collected from rats exposed to a single oral dose (3 mg/kg in 1% CMC) of each compound over a 24 hour period in metabolic cages. The pooled urine sample was then subjected to full scan mass spectral analysis, using the same LC-MS conditions as described in example 1 above. Further MS-MS analysis of the product ions was then performed, and likely fragmentations/re-arrangements assigned from the publicly available Metabolite ID database.
For the major metabolites, the assigned structures were confirmed by synthesis of authentic samples, using methods well known in the art, which were subject to LC-MS-MS analysis under the same conditions as the urine samples.
Note that metabolite ID studies provide only qualitative estimates of the relative amounts of the different metabolites present, and separately validated assays with appropriate internal standards would be required to quantitate each metabolite species.

[2] = Pharmacokinetics following a single dose in rat (1 mg/kg iv, 3 mg/kg oral), LC-MS/MS, one-compartment model; type: in vivo; conditions: for bioavailability / clearance / Vd / half-life: plasma; for bioavailability: 3 mg/kg oral in 1% CMC vs 1 mg/kg iv, one-compartment model, read-out: F (%) oral bioavailability; for clearance / Vd / half-life: iv, 1 mg/kg; for Vd: read-out: Vss (L/kg) volume of distribution; for AUC(0-t): blood, single oral dose 3 mg/kg in 1% CMC, Tables 7-9, read-out: Exposure (min · ng/ml), oral exposure AUC 0-t (converted)
Method: Compounds were administered as a single dose (either 1 mg/kg bodyweight in 5% DMSO via the intravenous route or 3 mg/kg in 1% carboxymethylcellulose via the oral route) to three adult rats (using different rats for each compound and each route of administration).
Blood was then sampled at various time points (including just prior to dose administration) out to 24 hrs post dose, and the level of the various compounds was assessed using a validated LC-MS/MS assay. Briefly, 3-5 μl of the deproteinised sample was applied to a Waters Atlantis (C18 20×2.1 mm, 3 μm bead size) reverse phase chromatography column equilibrated in 0.1% formic acid in 95:5 water:actetonitrile. Over 3.5 minutes bound material was gradient eluted reaching 0.1% formic acid in 5:95 water:acetonitrile, followed by a step gradient back to 0.1% formic acid in 95:5 water:acetonitrile. The column eluent was then directed to an Applied Biosystems API 4000/3200 QTrap MS/MS mass spectrometer, with a TurboIonspray™ ion source operating in positive ion mode. The interface temperature was set at 650° C., with a 40 ms dwell time for each MRM transition, monitoring the following ions:
The internal standard in each determination was the related compound (S)-3-(2′,2′-dimethyl-propanoylamino)-caprolactam, which was spiked into the sample prior to deproteinization. The lower limit of quantitation (LLOQ) for this assay was 2.4 ng/ml for each compound except (I′), where it was 38.1 ng/ml.
Following LC-MS/MS analysis of each collected sample, the pharmacokinetic disposition of the compound was modelled using Kinetica software, a well known software package for such applications.
Compounds (VI) and (VII) were subject to pharmacokinetic analysis in rat using exactly the same protocols previous applied for compounds (I) through (V) in example 1.
We therefore subjected (VIII) to pharmacokinetic analysis in rat using exactly the same protocols previous applied for compounds (I′) through (VII) in examples 1 and 7.
The isolated (R)-enantiomer of (I) was therefore synthesised (exactly as described herein for the isolated (S)-enantiomer, but replacing the (S)-ornithine starting material with commercially available (R)-ornithine of high stereochemical purity), and the PK properties of this agent, in rat, was determined using the identical methodology described above (see Examples 1, 7 and 8).

[3] = Distribution of unchanged compound into tissues and urine 24 hrs after a single dose in rat; type: in vivo
Method: as §1
To provide a quantitative estimate of the degree of metabolism suffered by each of the compounds tested, the amount of unchanged parent compound in urine was measured using the same validated LC-MS assay described in example 1, using (S)-3-(2′,2′-dimethylpropanoylamino)-caprolactam as an internal standard. In addition, the level of compounds in various target tissues was also determined.

[4] = Stability in serum in vitro; type: in vitro ADME; conditions: human serum; 37° C.
Source text: As an approach to identifying such stable analogs, various derivatives of (S)-3-(undec-10-enoyl)-aminoglutarimide have been tested for their stability in serum.

[5] = Solubility as observed (water, dosing vehicle); type: physicochemical; conditions: 5% DMSO in saline
[6] = tested on: chemokine-induced migration; conditions: read-out: ED50 inhibition of chemokine-induced migration in vitro; cited from earlier work
[7] = tested on: LPS-induced TNF-α production; assay: Sub-lethal LPS-induced endotoxemia in mice, serum TNF-α by ELISA; type: in vivo; conditions: for inhibition of LPS-induced TNF-α production (reference agents, previously shown): mice, dose not stated
Method: FIGS. 5A-5E show representative dose response curves for the inhibition of LPS induced TNF-α production in vivo in a murine model of sub-lethal endotoxemia. In each experiment, groups of six mice received pre-treatment with the five compounds (FIG. 5A: (II); FIG. 5B: (III); FIG. 5C: (V); FIG. 5D: (I′) and FIG. 5E: (IV)) at various doses, via either the oral route (circles) or subcutaneous route (triangles). 30-60 mins later, animals were challenged with LPS via the intraperitoneal route, and serum was prepared from a terminal bleed 3 hours later. The level of TNF-α in the blood was measured by ELISA, and the degree of inhibition of LPS-induced TNF-α production (calculated as the concentration of TNF-α in mice exposed to LPS minus the concentration of TNF-α in mice which received a sham exposure to endotoxin-free PBS) is shown on the Y-axis of each graph as the mean of six animals, with whiskers representing SEMs. The concentration of TNF-α in mice receiving LPS but no BSCI treatment was typically 5,000 to 6,000 pg/ml on average (compared to <10 pg/ml in unchallenged mice). The ED50 was estimated by linear interpolation of the presented graphs. The X-axis of each graph represents the dose of each compound administered to each mouse in the group in units of mg (1E-07 to 1).
In this assay, mice are given a non-specific pro-inflammatory challenge using bacterial endotoxin (LPS), and the extent of the systemic inflammatory response (measured by serum levels of the central pro-inflammatory cytokine TNF-α, which is essentially absent from the blood under normal conditions, but is rapidly elevated in response to a wide range of inflammatory stimuli). We have selected this model even though it is not, itself, a particularly close model of any human inflammatory disease condition, but because TNF-α is known to be important in very many diseases (including rheumatoid arthritis, autoimmune disorders, Crohn's Disease, atherosclerosis, asthma and many more). Consequently, agents which suppress TNF-α production are already used clinically (e.g. Enbrel™ and other anti-TNF-α antibody products) to treat a wide range of such diseases.
Mice (in groups of 6) were pretreated with various doses of each compound, either by the subcutaneous route 30 mins prior to LPS challenge, or by the oral route (via gavage) 60 mins prior to LPS. The mice were then challenged with an intraperitoneal injection of 750 μg of bacterial LPS and sacrificed 3 hours later. Serum was prepared from a terminal bleed by cardiac puncture, and the concentration of TNF-α is determined by ELISA (R&D Systems). In each experiment, a group of 6 mice receive no LPS to act as a negative control, and a second group receive only LPS (with no candidate inhibitor). […]

[8] = tested on: leukocytes in BAL fluid; assay: Ovalbumin-induced lung inflammation model of asthma, cell counts in BAL fluid; type: in vivo, Brown Norway rats; conditions: 30 mg/kg daily via the oral route
Source text: Bars represent mean cell counts, shown on the Y axis in units of 10^6 cells, for groups of […] with whiskers representing SEM; * p<0.01 versus ‘sensitised’ using Student's unpaired t-test assuming equal variance, with two tails). The horizontal line represents the average number of leukocytes present in BAL fluid from the lungs of unchallenged rats. All rats in the remaining three groups received the same sensitisation and challenge regimen, but were either treated with vehicle only (‘Sensitised’), or with compound (I′) at 0.3 mg/kg bodyweight or with monteleukast (‘Singulair™’) at 30 mg/kg bodyweight, all administered daily by oral gavage.
Adult Brown Norway rats (200-300 g body weight; n=10 per group) were sensitised by a single intraperitoneal injection of 0.1 mg Ovalbumin on day 0. Each rat then received an intratracheal challenge with a solution of 1% ovalbumin (w/v) on day 8, and with 2% ovalbumin (w/v) on days 15, 18 and 21. The animals were then sacrificed 3 hours after the final challenge on day 21. […]
On sacrifice, total lung leukocyate recruitment was assessed by performing a broncheoalveolar lavage (BAL) using 4 lots of 3 ml sterile phosphate-buffered saline introduced through a tracheal cannula. For each animal, the BAL washes were combined, and the total cell population counted (using a haemocytometer). […]

[9] = intravenous dosing 1 mg/kg, averaged across three rats, read-out: t1/2 (mins) dominant plasma half-life

CC1(C(=O)N[C@H]2CCCCNC2=O)CCCCC1 [(III), 3-(1′-methylcyclohexylcarbonylamino)-caprolactam]
major metabolites / route of metabolism detected in urine [1]: cytochrome P450-mediated hydroxylation | bioavailability ([2]; averaged across three rats): 5% | clearance ([2]; averaged across three rats): 55 mL/min/kg | Vd ([2]; averaged across three rats): 0.6 L/kg | half-life [2, 9]: 11 min

CC(C)(C)S(=O)(=O)N[C@H]1CCCCNC1=O [(IV), 3-(1′,1′-dimethylethylsulfonylamino)-caprolactam]
major metabolites / route of metabolism detected in urine [1]: the major metabolite could not be identified | Urine (ng/ml) unchanged parent compound ([3]; 24 hrs after a single oral dose 3 mg/kg in 1% CMC): 1010 ng/mL | unchanged parent compound recovered in urine, % of the injected dose ([3]; single oral dose 3 mg/kg in 1% CMC, 24 hrs): less than 10%

C=CCCCCCCCCC(=O)[C@@H]1CCCNC1=O [(S)-3-(undec-10-enoyl)-tetrahydropyridin-2-one]
time completely stable in serum [4]: at least 7 days

O=C1NCCCC1NC(=O)C12CC3CC(CC(C3)C1)C2 (stereo not drawn) [(VII), 3-(adamanatane-1-carbonylamino)-tetrahydropyridin-2-one]
AUC(0-t) [2]: 542 ng·h/mL | bioavailability ([2]; averaged across three rats): 35% | clearance ([2]; averaged across three rats): 31.1 mL/min/kg | Vd ([2]; averaged across three rats): 0.7 L/kg | half-life [2, 9]: 20 min | half-life ([2]; read-out: plasma half-life): < 60 min

CCCCCCCCCCC(C)(C)C(=O)NC1CCCNC1=O (stereo not drawn) [Compound (VI), 3-(2′,2′-dimethyldodecanoylamino)-tetrahydropyridin-2-one]
AUC(0-t) [2]: 183 ng·h/mL | bioavailability ([2]; averaged across three rats): 16% | clearance ([2]; averaged across three rats): 40.3 mL/min/kg | Vd ([2]; averaged across three rats): 1.95 L/kg | half-life [2, 9]: 46 min | half-life ([2]; read-out: plasma half-life): < 60 min | solubility in iv dosing vehicle [5]: completely insoluble

C=CCCCCCCCCC(=O)N[C@H]1CCC(=O)NC1=O [NR58,4, (S)-3-(undec-10-enoyl)-aminoglutarimide]
EC50 [6]: 5 nM | fold less potent in vivo than 3-(2′,2′-dimethylpropanoylamino)-tetrahydropyridin-2-one ([7]; models of acute inflammation such as LPS-induced endotoxemia): at least 250 fold

C[C@@H]1C[C@H]2[C@@H]3CCC4=CC(=O)C=C[C@]4(C)[C@@]3(F)[C@@H](O)C[C@]2(C)[C@@]1(O)C(=O)CO [dexamethasone]
inhibition of LPS-induced TNF-α production (reference agents, previously shown) [7]: at least 90%

CC(C)(O)c1ccccc1CC[C@@H](SCC1(CC(=O)O)CC1)c1cccc(/C=C/c2ccc3ccc(Cl)cc3n2)c1 [monteleukast]
effect on the number of leukocytes in the BAL washes [8]: significantly reduced the number of leukocytes in the BAL washes

O=C1CCC(N2C(=O)c3ccccc3C2=O)C(=O)N1 (stereo not drawn) [thalidomide]
inhibition of LPS-induced TNF-α production (reference agents, previously shown) [7]: about 60%
